Test results taken from ChEMBL document CHEMBL1201862, “PubChem BioAssay data set” (2004).
Active and inactive are the calls of the source.

Tests used:
[1] = Vero cell cytotoxicity, dose response, cytotoxicity control for Vif-APOBEC3G degradation inhibitor project, Vero cells (AID 1117358); format: functional; settings: Human immunodeficiency virus 1, Vero
[2] = non-specific cell cytotoxicity, dose response, cytotoxicity control for PAX8 inhibitor project, plate reader, dry powder samples (AID 743021); format: functional, cell-based
[3] = P. falciparum Dd2 growth inhibitors, dose response, SYBR Green, cherry-picked samples (AID 1159567); format: functional, cell-based
[4] = NIH:OVCAR-3 ovarian cancer cell cytotoxicity, dose response, PAX8 inhibitor project, plate reader, dry powder samples (AID 743044); format: functional, cell-based
[5] = P. falciparum 3D7-ScDHODH growth inhibitors, dose response, SYBR Green, dry powder samples (AID 1159570); format: functional, cell-based;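 further: parasite growth measured after 72 hours of compound exposure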
[6] = cytotoxicity in OVCAR8 ovarian cancer cells, dose response, PAX8 project, cell-based, plate reader, dry powder samples (AID 743197); format: functional; settings: OVCAR-8
[7] = HepG2 cell cytotoxicity, dose response, cytotoxicity control, cherry-picked samples (AID 1159577); format: functional, cell-based
Paired box protein Pax-8 = Paired box protein Pax-8 (Homo sapiens, UniProt Q06710); assay: inhibitors of PAX8-driven TPO luciferase reporter, dose response, RMG-I cells, cherry-pick (AID 687027); format: functional, cell-based;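 further: luciferase reporter driven by Pax8 target thyroperoxidase promoter measured by SteadyGlo luminescence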
[8] = P. falciparum ATP4 D1247Y mutant growth inhibitors, dose response, NITD609-resistant line, SYBR Green, dry powder (AID 1159571); format: functional, cell-based;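 further: parasites synchronized at ring stage by sorbitol before testing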
[9] = HepG2 cell cytotoxicity, dose response, cytotoxicity control, plate reader, dry powder samples (AID 1159569); format: functional, cell-based;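 further: inhibitor potency with signal falling toward the positive control level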
[10] = P. falciparum Dd2 growth inhibitors, dose response, SYBR Green, dry powder samples (AID 1159566); format: functional, cell-based;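 further: potency for growth inhibition with lower SYBR green DNA signal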
Protein RecA = target: T1, Protein RecA (Mycobacterium tuberculosis, UniProt P9WHJ3); assay: Fluorescence Cell-Free Homogeneous Dose Retest to Identify Inhibitors of RecA-Intein Splicing Activity. [Related pubchem assays (depositor defined):AID2097, AID2223, AID489010, AID492950]; format: functional
T1 sequence (P9WHJ3 whole entry): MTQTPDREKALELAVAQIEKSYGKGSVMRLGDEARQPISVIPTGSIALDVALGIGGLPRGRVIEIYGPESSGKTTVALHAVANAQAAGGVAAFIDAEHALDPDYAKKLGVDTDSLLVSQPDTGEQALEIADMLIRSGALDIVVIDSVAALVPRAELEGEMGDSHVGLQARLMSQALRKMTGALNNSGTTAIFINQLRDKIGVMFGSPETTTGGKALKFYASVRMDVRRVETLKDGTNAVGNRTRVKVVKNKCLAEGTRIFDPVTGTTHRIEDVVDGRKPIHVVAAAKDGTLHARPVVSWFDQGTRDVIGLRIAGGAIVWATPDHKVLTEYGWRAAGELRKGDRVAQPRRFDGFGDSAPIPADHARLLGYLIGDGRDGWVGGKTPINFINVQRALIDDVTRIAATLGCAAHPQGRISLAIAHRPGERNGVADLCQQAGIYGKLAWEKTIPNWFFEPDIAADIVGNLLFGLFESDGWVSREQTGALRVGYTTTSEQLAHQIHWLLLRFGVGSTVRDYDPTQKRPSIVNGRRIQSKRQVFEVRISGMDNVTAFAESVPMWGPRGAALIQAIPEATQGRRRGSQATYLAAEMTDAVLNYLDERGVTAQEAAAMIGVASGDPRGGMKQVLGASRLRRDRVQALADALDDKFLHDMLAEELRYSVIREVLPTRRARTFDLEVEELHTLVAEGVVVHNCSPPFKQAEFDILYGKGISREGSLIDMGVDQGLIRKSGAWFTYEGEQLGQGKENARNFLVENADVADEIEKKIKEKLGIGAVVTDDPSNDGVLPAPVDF

[11] = target: G-protein coupled receptor 55 (Homo sapiens, UniProt Q9Y2T6); assay: GPR55 antagonists, SAR follow-up, counter-screen for GPR35 antagonist project, imaging, image-based (AID 2397); format: functional
[12] = cytotoxicity in HEK-293T cells, dose response, cytotoxicity control for BCR NF-kB inhibitor project, luminescence, B-cell screen hits (AID 489021); format: functional, cell-based;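 further: HEK-293T cells carrying an NF-kB luciferase reporter; cells exposed to compound for about 14 hours before viability readout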
[13] = target: T2, Replicative DNA helicase DnaB (Mycobacterium tuberculosis, UniProt P9WMR3); assay: DnaB intein splicing inhibitors, dose response, biochemical, cell-free fluorescence (AID 449749); format: functional
T2 sequence (P9WMR3 whole entry): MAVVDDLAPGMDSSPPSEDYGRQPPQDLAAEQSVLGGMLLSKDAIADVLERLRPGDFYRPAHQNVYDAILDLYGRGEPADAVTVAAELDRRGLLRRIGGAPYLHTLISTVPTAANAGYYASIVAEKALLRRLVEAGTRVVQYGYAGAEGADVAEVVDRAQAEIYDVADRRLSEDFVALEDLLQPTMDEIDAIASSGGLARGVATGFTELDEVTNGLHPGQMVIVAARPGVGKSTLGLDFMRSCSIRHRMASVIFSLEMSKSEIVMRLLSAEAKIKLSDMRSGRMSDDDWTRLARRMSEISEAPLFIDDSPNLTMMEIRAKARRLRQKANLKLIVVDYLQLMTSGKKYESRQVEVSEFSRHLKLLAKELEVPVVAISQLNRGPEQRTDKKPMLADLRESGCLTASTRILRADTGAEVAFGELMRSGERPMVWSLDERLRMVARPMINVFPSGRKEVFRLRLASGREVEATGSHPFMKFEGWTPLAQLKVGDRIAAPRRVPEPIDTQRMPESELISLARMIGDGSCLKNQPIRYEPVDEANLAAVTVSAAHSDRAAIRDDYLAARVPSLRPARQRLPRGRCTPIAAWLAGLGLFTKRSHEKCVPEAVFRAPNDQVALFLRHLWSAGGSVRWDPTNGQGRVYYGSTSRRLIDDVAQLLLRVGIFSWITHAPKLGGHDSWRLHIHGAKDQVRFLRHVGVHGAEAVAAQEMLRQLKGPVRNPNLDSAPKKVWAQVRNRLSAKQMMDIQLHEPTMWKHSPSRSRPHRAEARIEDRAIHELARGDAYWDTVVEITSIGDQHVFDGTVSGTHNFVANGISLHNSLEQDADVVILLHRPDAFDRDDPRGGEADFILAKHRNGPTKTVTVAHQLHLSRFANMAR

[14] = target: G-protein coupled receptor 35 (Homo sapiens, UniProt Q9HC97); assay: SAR Analysis for the identification of Selective Antagonists of ERK1/2 Activity in GPR35-Overexpressing U2OS Cells. [Related pubchem assays: 2079, 2058 ]; format: functional, cell-based
[15] = A549 cell cytotoxicity, dose response, cytotoxicity control, plate reader, dry powder, set 6 (AID 743312); format: functional, cell-based
[16] = Luminescence-based cell-based high throughput dose response assay to identify activators of the DAF-12 from the parasite S. stercoralis (ssDAF-12).; format: functional
[17] = target: T3, Oxysterols receptor LXR-beta (Homo sapiens, UniProt P55055); assay: LXR agonists, Gal4 luciferase reporter, dose response, counter-screen for ssDAF-12 agonist project, cell-based, luminescence, HEK293, S. stercoralis campaign (AID 720737); format: functional; settings: read-out: IC50 (the source's name)
T3 sequence (P55055 whole entry): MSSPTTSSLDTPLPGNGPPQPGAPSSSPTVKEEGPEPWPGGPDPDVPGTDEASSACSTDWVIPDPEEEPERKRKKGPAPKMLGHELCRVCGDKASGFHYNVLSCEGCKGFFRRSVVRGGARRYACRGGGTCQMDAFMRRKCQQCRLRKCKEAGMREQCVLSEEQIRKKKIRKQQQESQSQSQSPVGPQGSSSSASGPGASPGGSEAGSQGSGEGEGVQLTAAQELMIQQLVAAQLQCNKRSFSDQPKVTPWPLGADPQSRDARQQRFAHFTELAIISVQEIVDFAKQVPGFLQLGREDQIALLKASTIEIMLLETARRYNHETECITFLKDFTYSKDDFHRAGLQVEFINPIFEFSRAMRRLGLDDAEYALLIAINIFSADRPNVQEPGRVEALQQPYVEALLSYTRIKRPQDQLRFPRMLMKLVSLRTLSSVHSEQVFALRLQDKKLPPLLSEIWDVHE

[18] = target: T4, Low molecular weight phosphotyrosine protein phosphatase (Homo sapiens, UniProt P24666); assay: LMPTP phosphatase inhibitors, dose response, biochemical, OMFP substrate, fluorescence intensity, set 2 (AID 743307); format: functional
[19] = target: T4, Low molecular weight phosphotyrosine protein phosphatase; assay: LMPTP phosphatase inhibitors, colorimetric pNPP readout, dose response, orthogonal assay, biochemical, absorbance, pNPP substrate, LMPTP-A isoform, set 2 (AID 743308); format: functional

T4 sequence (P24666 whole entry, canonical isoform): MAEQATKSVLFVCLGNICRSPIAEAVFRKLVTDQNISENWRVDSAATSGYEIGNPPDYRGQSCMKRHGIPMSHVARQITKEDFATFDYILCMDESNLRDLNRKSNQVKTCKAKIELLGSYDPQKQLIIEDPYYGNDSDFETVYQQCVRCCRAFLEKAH
G-protein coupled receptor 35, sequence (Q9HC97 whole entry): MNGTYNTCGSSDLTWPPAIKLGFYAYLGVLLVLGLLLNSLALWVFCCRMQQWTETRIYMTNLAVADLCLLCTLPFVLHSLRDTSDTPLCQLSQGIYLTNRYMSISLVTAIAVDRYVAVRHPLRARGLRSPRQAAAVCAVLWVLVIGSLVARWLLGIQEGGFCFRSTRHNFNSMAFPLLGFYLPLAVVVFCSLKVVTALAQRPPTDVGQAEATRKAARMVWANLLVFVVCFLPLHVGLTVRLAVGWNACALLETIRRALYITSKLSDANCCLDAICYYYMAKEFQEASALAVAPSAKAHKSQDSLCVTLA
Paired box protein Pax-8, sequence (Q06710 whole entry): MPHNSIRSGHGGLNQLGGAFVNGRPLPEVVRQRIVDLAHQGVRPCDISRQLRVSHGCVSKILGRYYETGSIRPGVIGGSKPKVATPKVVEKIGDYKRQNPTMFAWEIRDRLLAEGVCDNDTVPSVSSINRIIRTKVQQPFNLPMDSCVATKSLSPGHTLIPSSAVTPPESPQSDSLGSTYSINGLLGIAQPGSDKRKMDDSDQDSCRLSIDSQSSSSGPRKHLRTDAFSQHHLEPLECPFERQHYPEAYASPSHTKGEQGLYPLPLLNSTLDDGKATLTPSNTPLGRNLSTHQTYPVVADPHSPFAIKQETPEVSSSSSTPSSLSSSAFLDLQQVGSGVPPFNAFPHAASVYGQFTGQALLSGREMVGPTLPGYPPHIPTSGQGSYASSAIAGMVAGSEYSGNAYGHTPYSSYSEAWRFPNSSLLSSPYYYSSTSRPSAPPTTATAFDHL
G-protein coupled receptor 55, sequence (Q9Y2T6 whole entry): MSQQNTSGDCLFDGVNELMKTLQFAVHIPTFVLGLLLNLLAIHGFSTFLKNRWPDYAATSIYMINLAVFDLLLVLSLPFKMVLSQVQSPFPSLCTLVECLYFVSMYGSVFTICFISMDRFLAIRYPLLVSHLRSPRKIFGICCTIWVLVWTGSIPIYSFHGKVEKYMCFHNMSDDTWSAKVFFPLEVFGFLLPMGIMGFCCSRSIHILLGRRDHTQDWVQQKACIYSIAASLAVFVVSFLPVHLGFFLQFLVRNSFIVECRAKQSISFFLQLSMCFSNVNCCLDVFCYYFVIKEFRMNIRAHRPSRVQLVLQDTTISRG

Cc1ccc(C)c(S(=O)(=O)Nc2ccccc2C(=O)Nc2ccccc2N2CCOCC2)c1
CC50 [1]: > 40 µM (active)

Cc1cccc(-c2ccc([C@H]3[C@H]4CN(S(=O)(=O)c5cccc(C)c5)CCCCN4[C@H]3CO)cc2)c1
AC50 [2]: 67.1 µM (active) | AC50 [3]: 2.62 µM (active) | AC50 [4]: 43.5 µM (active) | AC50 [5]: 2.07 µM (active) | AC50 [6]: 44.6 µM (active) | AC50 [7]: > 39 µM (inactive) | AC50 (Paired box protein Pax-8): 7.45 µM (active) | AC50 [8]: 1.42 µM (active) | AC50 [9]: > 100 µM (inactive) | AC50 [10]: 1.19 µM (active)

COc1ccc(/C=C2\SC(=S)N(CCCC(=O)Nc3ccc(O)cc3)C2=O)cc1
EC50 (Protein RecA): 78.1 µM (active) | IC50 [11]: > 32 µM (inactive) | IC50 [12]: > 80 µM (inactive) | AC50 [13]: > 380 µM (inactive) | IC50 [14]: > 32 µM (not active)

Cc1ccc(C(C)C)c(OCCn2c(S)nc3ccccc32)c1
AC50 [15]: 22 µM (active)

O=C(CCn1c(=S)oc2ccccc21)NC1CCCCC1
IC50 [16]: > 67.6 µM (inactive) | EC50 [17]: > 67.6 µM (inactive)

Fc1ccc(-c2cc(NCCCN3CCCCC3)c3ccccc3n2)cc1
IC50 [18]: 1.4 µM (active) | IC50 [19]: 3.27 µM (active)
